# Reference: patent US11667623B2, “Scaffold of adenylyl cyclase inhibitors for chronic pain and opioid dependence” (Purdue Research Foundation, priority 2017, dated 2023)
# Read-outs that look alike come from different tables or passages of the source.
# Columns and labels:
# hAC1 [1] = biological target: T1, hAC1 (Homo sapiens, UniProt Q08828); test: Cyclic AMP accumulation (HTRF) in HEK cells stably expressing AC1, stimulated with A23187; type: cell-based; settings: for inhibition at 30 µM: HEK293; for Selectivity AC1 vs AC8: AC8 IC50/AC1 IC50, without AC8 IC50, estimate based on IC50 ≥30 μM
# T1 construct: expressed in transfected cells
# T1 sequence (Q08828 whole entry): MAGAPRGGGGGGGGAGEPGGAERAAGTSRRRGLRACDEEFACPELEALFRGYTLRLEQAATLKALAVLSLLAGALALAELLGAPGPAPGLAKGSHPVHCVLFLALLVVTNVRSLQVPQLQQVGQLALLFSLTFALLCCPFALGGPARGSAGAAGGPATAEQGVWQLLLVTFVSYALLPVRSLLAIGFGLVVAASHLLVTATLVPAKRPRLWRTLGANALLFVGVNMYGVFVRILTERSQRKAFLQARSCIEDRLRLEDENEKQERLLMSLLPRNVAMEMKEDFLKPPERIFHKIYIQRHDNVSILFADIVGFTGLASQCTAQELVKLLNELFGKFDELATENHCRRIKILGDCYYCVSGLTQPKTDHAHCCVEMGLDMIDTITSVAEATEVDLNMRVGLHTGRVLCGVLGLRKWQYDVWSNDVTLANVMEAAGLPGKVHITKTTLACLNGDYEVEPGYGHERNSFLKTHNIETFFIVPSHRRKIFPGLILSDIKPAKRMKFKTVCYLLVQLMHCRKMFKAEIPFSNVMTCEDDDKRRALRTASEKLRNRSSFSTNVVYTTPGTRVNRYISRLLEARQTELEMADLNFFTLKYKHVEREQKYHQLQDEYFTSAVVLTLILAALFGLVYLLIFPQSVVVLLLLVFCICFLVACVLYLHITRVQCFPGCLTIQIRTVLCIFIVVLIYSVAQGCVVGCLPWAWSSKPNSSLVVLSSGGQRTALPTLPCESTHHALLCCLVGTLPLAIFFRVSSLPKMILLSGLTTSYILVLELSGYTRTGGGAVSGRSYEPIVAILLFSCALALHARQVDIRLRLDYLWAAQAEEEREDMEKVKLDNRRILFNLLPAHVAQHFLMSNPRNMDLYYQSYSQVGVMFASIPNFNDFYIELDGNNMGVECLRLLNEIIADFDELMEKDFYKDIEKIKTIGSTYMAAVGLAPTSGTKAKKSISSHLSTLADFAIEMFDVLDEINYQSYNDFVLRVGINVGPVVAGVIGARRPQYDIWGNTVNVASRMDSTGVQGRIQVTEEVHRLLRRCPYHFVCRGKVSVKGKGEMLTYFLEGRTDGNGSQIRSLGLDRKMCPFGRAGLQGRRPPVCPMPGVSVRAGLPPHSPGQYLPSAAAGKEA
# Description: The screen was carried out using HEK cells stably expressing AC1 (HEK-AC1) and cyclic AMP accumulation was stimulated using the Ca^2+ ionophore, A23187 to selectively activate AC1.
# Both AC1 and AC8 are robustly activated by Ca^2+/CaM under a variety of conditions, whereas the effects of Ca^2+/CaM on AC3 are modest and conditional requiring activation by G proteins.
# The primary technology we employed to measure cAMP accumulation was a homogenous time-resolved fluorescence (HTRF) assay, the same technology utilized in the primary screen. […]
# (§1) Briefly, cryopreserved cells were thawed, resuspended in optiMEM (Life Technologies), and plated in white, flat bottom, low-volume, tissue culture-treated 384 well plates (PerkinElmer, Shelton, Conn.). Plates with cells were incubated in a 37° C. humidified incubator for 1 h. Inhibitors were added and plates were incubated at room temperature for 30 min followed by the addition of AC stimulants in the presence of 500 μM IBMX. Cells were incubated at room temperature for 1 h and cAMP accumulation was measured using Cisbio's cAMP kit (Cisbio Bioassays, Bedford, Mass.) according to the manufacturer's instructions.
# HEK-AC1 cells [2] = tested on: HEK-AC1 cells
# Description: Cell viability assays were conducted with HEK-AC1 cells following plating and compound incubation protocols identical to the procedures described above in “Cyclic AMP assays in cells”. Cell viability was measured as a percentage of vehicle using 2% Triton X-100 (Sigma-Aldrich) as a control. The CellTiter-Glo® Luminescent Cell Viability Assay kit from Promega (Madison, Wis.) was employed to assess cell viability according to the manufacturer's instructions. Luminescence counts were measured using a Synergy 4.
# hAC5 [3] = biological target: T2, hAC5 (Homo sapiens, UniProt O95622); test: Cyclic AMP accumulation in stable HEK-AC5 cells, stimulated with 300 nM forskolin; type: cell-based; settings: Table 1, at 30 μM, negative = potentiated, n = 2
# T2 construct: expressed in transfected cells
# T2 sequence (O95622 whole entry): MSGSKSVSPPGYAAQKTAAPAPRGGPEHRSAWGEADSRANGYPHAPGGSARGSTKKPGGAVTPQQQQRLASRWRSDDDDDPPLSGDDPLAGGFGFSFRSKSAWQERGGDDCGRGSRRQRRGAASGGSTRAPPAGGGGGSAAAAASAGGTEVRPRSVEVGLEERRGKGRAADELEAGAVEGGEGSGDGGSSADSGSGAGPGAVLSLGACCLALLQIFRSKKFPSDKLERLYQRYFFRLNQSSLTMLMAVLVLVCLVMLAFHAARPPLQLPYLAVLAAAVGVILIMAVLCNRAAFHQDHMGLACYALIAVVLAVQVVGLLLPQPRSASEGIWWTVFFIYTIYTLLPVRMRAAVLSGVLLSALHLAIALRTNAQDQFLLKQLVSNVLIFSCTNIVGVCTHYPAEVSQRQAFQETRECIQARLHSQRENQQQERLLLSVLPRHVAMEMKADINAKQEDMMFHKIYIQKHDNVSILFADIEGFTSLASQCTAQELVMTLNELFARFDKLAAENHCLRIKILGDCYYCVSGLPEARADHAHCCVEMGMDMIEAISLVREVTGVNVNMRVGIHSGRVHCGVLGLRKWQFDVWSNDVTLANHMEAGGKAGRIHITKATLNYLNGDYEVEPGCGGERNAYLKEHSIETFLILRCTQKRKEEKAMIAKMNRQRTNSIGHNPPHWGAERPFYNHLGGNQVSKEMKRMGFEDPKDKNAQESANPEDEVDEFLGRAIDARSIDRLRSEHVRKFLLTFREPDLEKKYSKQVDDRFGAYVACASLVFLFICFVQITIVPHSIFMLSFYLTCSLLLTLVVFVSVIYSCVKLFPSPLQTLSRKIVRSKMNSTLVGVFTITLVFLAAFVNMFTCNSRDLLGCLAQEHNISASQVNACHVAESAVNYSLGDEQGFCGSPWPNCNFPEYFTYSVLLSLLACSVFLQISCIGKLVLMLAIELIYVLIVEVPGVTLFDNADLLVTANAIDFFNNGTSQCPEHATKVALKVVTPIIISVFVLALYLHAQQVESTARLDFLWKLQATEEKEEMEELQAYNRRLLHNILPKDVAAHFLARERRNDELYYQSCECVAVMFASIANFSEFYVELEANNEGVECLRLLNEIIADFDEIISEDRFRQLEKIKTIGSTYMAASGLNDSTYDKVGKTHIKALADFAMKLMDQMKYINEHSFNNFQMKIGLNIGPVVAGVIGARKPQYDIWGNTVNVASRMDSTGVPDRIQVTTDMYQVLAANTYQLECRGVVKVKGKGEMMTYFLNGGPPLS
# Description: as §1, with “Cyclic AMP accumulation was measured as previously described (Brust, et al., J. Pharmacol. Exp. Ther. 352, 480-493(2015)). Briefly,” for “Briefly,”
# hAC2 [4] = biological target: T3, hAC2 (Homo sapiens, UniProt Q08462); test: Cyclic AMP accumulation in stable HEK-AC2 cells, stimulated with 100 nM PMA; type: cell-based; settings: Table 1, at 30 μM, negative = potentiated, n = 2
# T3 construct: expressed in transfected cells
# T3 sequence (Q08462 whole entry): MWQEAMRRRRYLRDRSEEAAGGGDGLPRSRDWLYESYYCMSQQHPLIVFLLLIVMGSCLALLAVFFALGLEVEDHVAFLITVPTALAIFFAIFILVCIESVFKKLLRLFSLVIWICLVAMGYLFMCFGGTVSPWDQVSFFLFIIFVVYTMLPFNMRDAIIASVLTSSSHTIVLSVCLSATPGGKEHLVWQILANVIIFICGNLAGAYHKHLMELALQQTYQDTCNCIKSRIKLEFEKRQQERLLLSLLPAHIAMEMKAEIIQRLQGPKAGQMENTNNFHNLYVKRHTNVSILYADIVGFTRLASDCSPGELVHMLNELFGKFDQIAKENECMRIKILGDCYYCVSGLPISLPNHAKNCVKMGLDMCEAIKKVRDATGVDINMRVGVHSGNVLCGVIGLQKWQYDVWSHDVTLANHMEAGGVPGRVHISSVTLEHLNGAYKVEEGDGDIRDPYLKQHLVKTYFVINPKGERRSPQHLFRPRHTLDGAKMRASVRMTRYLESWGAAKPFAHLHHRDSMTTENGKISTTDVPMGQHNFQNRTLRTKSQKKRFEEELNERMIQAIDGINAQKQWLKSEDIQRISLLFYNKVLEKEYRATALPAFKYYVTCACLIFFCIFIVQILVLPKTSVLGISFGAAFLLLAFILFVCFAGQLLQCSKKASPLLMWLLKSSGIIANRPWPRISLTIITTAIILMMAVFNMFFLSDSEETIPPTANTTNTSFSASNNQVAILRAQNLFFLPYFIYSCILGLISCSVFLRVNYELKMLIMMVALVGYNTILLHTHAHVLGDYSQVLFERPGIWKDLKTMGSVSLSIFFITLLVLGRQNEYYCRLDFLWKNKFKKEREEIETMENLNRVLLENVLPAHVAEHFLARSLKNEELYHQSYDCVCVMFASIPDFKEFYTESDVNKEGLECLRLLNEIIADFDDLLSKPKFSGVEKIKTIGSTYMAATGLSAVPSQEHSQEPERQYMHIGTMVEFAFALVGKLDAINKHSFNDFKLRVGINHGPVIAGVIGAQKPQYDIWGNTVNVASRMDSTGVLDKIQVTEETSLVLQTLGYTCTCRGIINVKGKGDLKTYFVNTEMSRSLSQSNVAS
# Description: as §1, with “Cyclic AMP accumulation was measured as previously described (Brust, et al., J. Pharmacol. Exp. Ther. 352, 480-493(2015)). Briefly,” for “Briefly,”
# hAC8 = biological target: T4, hAC8 (Homo sapiens, UniProt P40145); test: Cyclic AMP accumulation (HTRF) in HEK cells stably expressing AC8, stimulated with A23187; type: cell-based; settings: for hAC8 % Inhib: at 30 μM, negative values indicate a potentiated response; for inhibition at 30 µM: HEK293
# T4 construct: expressed in transfected cells
# T4 sequence (P40145 whole entry): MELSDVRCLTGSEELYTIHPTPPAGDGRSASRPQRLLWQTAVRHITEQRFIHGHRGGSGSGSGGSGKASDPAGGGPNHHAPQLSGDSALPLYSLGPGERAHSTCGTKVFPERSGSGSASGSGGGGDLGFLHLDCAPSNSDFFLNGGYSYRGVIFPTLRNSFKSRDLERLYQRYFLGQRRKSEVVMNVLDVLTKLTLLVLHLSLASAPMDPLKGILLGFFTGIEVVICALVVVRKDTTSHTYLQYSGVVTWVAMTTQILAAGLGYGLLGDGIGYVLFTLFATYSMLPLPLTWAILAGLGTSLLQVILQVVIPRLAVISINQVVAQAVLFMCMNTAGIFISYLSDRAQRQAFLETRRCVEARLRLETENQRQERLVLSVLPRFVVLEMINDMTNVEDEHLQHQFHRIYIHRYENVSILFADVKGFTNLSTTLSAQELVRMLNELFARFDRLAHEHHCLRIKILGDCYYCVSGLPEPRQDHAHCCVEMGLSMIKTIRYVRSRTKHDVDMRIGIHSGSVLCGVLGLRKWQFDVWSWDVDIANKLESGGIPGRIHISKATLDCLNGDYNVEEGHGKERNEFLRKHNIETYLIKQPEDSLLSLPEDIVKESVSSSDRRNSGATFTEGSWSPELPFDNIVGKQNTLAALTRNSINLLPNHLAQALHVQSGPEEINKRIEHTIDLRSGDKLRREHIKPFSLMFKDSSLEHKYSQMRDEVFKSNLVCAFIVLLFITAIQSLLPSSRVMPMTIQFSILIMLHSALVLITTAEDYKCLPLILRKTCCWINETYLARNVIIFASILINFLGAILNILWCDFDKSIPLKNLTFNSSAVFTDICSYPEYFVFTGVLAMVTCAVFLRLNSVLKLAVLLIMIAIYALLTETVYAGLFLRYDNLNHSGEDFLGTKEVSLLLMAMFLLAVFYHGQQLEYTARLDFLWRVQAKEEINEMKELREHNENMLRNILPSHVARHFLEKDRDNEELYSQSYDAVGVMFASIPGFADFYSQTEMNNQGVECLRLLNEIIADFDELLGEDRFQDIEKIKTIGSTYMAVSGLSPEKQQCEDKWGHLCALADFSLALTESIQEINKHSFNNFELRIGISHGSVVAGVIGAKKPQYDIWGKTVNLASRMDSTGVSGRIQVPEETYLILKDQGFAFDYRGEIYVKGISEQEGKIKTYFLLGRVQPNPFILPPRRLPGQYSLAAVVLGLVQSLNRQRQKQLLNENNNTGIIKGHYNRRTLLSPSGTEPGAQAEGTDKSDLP
# Description: Fresh powders of several robust inhibitors (>90% inhibition) were evaluated in multiple confirmation assays assessing the dose response relationship for inhibiting AC1 and AC8 activity. Confirmation assays used A23817 to selectively stimulate recombinant AC1 or AC8 in the HEK cell background (Cumbay and Watts (2001), J. Pharmacol Exp Ther 297:1201-1399). This approach takes advantage of one unique regulatory property of AC1 for the development of selective inhibitors. Both AC1 and AC8 are robustly activated by Ca^2+/CaM under a variety of conditions, whereas the effects of Ca^2+/CaM on AC3 are modest and conditional requiring activation by G proteins. Previous studies have identified unique Ca^2+/CaM binding domains as one possible site of interaction to achieve AC1 (vs. AC8) selectivity (Masada et al., 2012, Biochemistry 51:7917-7929).
# The primary technology we employed to measure cAMP accumulation was a homogenous time-resolved fluorescence (HTRF) assay, the same technology utilized in the primary screen.
# Human embryonic kidney (HEK) cells stably expressing AC1, AC8, or AC1 with the MOR were cultured in Dulbecco's Modified Eagle Medium (Life Technologies, Grand Island, N.Y.) supplemented with 5% bovine calf serum (Hyclone, Logan, Utah), 5% fetal clone I (Hyclone), Antibiotic-Antimycotic (Life Technologies), and G418 (Invivogen, San Diego, Calif.) (HEK-AC1), or hygromycin B (Fisher Scientific, Pittsburgh, Pa.) (HEK-AC8), or G418 and puromycin (Sigma-Aldrich) (HEK-AC1/MOR). Chinese hamster ovary (CHO) cells expressing the MOR (CHO-MOR) in the PathHunter® β-Arrestin GPCR assay platform were purchased from DiscoveRx (Freemont, Calif.). Cells were grown in Ham's F12 media supplemented with 1 mM L-glutamine (Thermo Scientific, West Palm Beach, Fla.), 10% fetal bovine serum (Hyclone), 50 Um′ penicillin, 50 μg/ml streptomycin (Life Technologies), G418 and hygromycin B. Cells were grown and frozen as previously described (J. M. Conley, et al., J Vis Exp, e51218 (2014)).
# as §1, with “Cyclic AMP accumulation was measured as previously described (Brust, et al., J. Pharmacol. Exp. Ther. 352, 480-493(2015)). Briefly,” for “Briefly,”
# chronic pain responses [5] = settings: rats; literature; cited from earlier work
# chronic pain responses [6] = settings: mice; literature; cited from earlier work
# hAC1 [7] = biological target: T1, hAC1; settings: Table 1; data from Brust et al. 2017; cited from earlier work
# HEK-AC1 cells [8] = settings: data from Brust et al. 2017; cited from earlier work
# hAC2 [9] = biological target: T3, hAC2; settings: Table 1; at 30 μM; 100 nM PMA; data from Brust et al. 2017; cited from earlier work
# hAC5 [10] = biological target: T2, hAC5; settings: Table 1; at 30 μM; 300 nM forskolin; data from Brust et al. 2017; cited from earlier work
# [11] = Table 2, read-out: HEK-AC1 IC50
# [12] = Table 1, stable HEK cells, A23187-stimulated cAMP, n ≥ 3
# [13] = Table 1, stable HEK cells, A23187-stimulated cAMP, n ≥ 3, read-out: hAC1 IC50
# [14] = Table 1, stable HEK cells, A23187-stimulated cAMP, n ≥ 3, read-out: hAC8 IC50
inhibition at 30 µM (hAC1 [1]; Table 2) [%],IC50 (hAC1 [1]; [11]) [µM],inhibition at 30 µM (hAC8; Table 2) [%],Structure (SMILES),Viability % Veh (HEK-AC1 cells [2]) [% Veh],hAC5 % Inhib (hAC5 [3]) [%],Selectivity AC1 vs AC8 (hAC1 [1]),hAC1 % Inhib (hAC1 [1]; [12]) [%],IC50 (hAC1 [1]; [13]) [µM],hAC2 % Inhib (hAC2 [4]) [%],hAC8 % Inhib (hAC8; Table 1) [%],other results
79 ± 4,16.7 ± 1,–,"CCc1cc(=O)nc(-n2nc(C)cc2NC(=O)C2CC2)[nH]1 [AC10050, N-(1-(6-ethyl-4-oxo-1,4-dihydropyrimidin-2-yl)-3-methyl-1H-pyrazol-5-yl)cyclopropanecarboxamide]",–,–,–,–,–,–,–,–
–,–,–,O=C(Nc1nnc(-c2ccc3c(c2)CCCC3)o1)c1ccccc1 [Compound F0608-0538],118 ± 6,−34,10-fold,101 ± 1,2.1 ± 0.4,−95,76 ± 8,IC50 (hAC8; [14]): 21 ± 4 µM
–,–,–,O=C(Nc1nnc(-c2ccc3c(c2)OCCO3)o1)c1ccc(Br)cc1 [Compound F0608-0011],125 ± 3,−10,9-fold,101 ± 1,2 ± 0.2,−7,79 ± 1,IC50 (hAC8; [14]): 18 ± 2 µM
–,–,–,CSc1cccc(C(=O)Nc2nnc(C3CCCCC3)o2)c1 [Compound F2289-0107],117 ± 1,−28,>4-fold,99 ± 1,7.5 ± 2,−210,31 ± 2,–
101 ± 0.7,1.5 ± 0.3,9 ± 4,"Cc1cc(NC(=O)c2ccccc2F)n(-c2nc(=O)cc(C)[nH]2)n1 [AC10042, 2-Fluoro-N-(3-methyl-1-(6-methyl-4-oxo-1,4-dihydropyrimidin-2-yl)-1H-pyrazol-5-yl)benzamide]",–,–,–,–,–,–,–,–
–,–,–,CSc1ccccc1C(=O)Nc1cc(C)nn1-c1nc2c(c(=O)[nH]1)CCC2 [Compound F2215-0954],106 ± 14,−21,>5-fold,99 ± 1,5.9 ± 0.4,−185,35 ± 8,–
–,–,–,CCc1cc(=O)[nH]c(-n2nc(C)cc2NC(=O)c2ccccc2F)n1 [Compound F2215-0213],101 ± 17,9,–,99 ± 1,0.5 ± 0.1,−70,20 ± 1,–
98 ± 1,1.3 ± 0.2,26 ± 4,"CCc1cc(=O)nc(-n2nc(C)cc2NC(=O)c2cccc(F)c2)[nH]1 [AC10049, N-(1-(6-ethyl-4-oxo-1,4-dihydropyrimidin-2-yl)-3-methyl-1H-pyrazol-5-yl)-3-fluorobenzamide]",–,–,–,–,–,–,–,"IC50 (hAC8; Table 2, read-out: HEK-AC8 IC50): 68 ± 10 µM"
4 ± 7,–,–,"Cc1cc(NC(=O)C2CC2)n(-c2nc(=O)cc(C)[nH]2)n1 [AC10051, N-(3-methyl-1-(6-methyl-4-oxo-1,4-dihydropyrimidin-2-yl)-1H-pyrazol-5-yl)cyclopropanecarboxamide]",–,–,–,–,–,–,–,–
92 ± 2,10.3 ± 2,16 ± 9,"Cc1cc(NC(=O)c2ccco2)n(-c2nc(=O)cc(C)[nH]2)n1 [AC10043, N-(3-methyl-1-(6-methyl-4-oxo-1,4-dihydropyrimidin-2-yl)-1H-pyrazol-5-yl)furan-2-carboxamide]",–,–,–,–,–,–,–,–
–,–,–,Nc1ncnc2c1ncn2CCNCCCCCO [NB001],–,–,–,–,–,–,–,chronic pain responses (inflammatory and neuropathic) (chronic pain responses [5]): markedly attenuated chronic pain responses; chronic pain responses (inflammatory and neuropathic) (chronic pain responses [6]): markedly attenuated chronic pain responses
–,–,–,"O=c1cc(C(Cl)(Cl)Cl)oc2ccc(Cl)cc12 [ST034307, 6-chloro-2-(trichloromethyl)-4H-chromen-4-one]",–,–,–,–,–,–,–,hAC1 % Inhib (hAC1 [7]): 108 ± 10%; Viability % Veh (HEK-AC1 cells [8]): 85 ± 6 % Veh; hAC2 % Inhib (hAC2 [9]): −142%; hAC5 % Inhib (hAC5 [10]): −44%
–,–,–,CC1CC(C)CN(S(=O)(=O)c2ccc(C(=O)Nc3nnc(-c4cccs4)o3)cc2)C1 (stereo not shown) [Compound F0559-0346],118 ± 2,4,2-fold,99 ± 1,9.1 ± 2,−6,74 ± 13,IC50 (hAC8; [14]): 17 ± 6 µM
99 ± 1,1.2 ± 0.2,19 ± 4,"CCc1cc(=O)nc(-n2nc(C)cc2NC(=O)c2ccc(Cl)cc2)[nH]1 [AC10058, 4-chloro-N-(1-(6-ethyl-4-oxo-1,4-dihydropyrimidin-2-yl)-3-methyl-1H-pyrazol-5-yl)benzamide]",–,–,–,–,–,–,–,–
94 ± 1,3.7 ± 0.2,9 ± 2,"Cc1cc(NC(=O)c2cccc(F)c2)n(-c2nc(=O)cc(C)[nH]2)n1 [AC10057, 3-fluoro-N-(3-methyl-1-(6-methyl-4-oxo-1,4-dihydropyrimidin-2-yl)-1H-pyrazol-5-yl)benzamide]",–,–,–,–,–,–,–,–
–,–,–,CCc1c(C)nc(-n2nc(C)cc2NC(=O)c2ccco2)[nH]c1=O [Compound F2215-0772],93 ± 1,13,>30-fold,100 ± 1,0.9 ± 0.2,32,34 ± 7,–

Structure (SMILES),inhibition at 30 µM (hAC1 [1]; Table 2) [%],IC50 (hAC1 [1]; [11]) [µM],inhibition at 30 µM (hAC8; Table 2) [%],Viability % Veh (HEK-AC1 cells [2]) [% Veh],hAC5 % Inhib (hAC5 [3]) [%],Selectivity AC1 vs AC8 (hAC1 [1]),hAC1 % Inhib (hAC1 [1]; [12]) [%],IC50 (hAC1 [1]; [13]) [µM],hAC2 % Inhib (hAC2 [4]) [%],hAC8 % Inhib (hAC8; Table 1) [%],other results
"CCc1cc(=O)nc(-n2nc(C)cc2NC(=O)c2ccccc2F)[nH]1 [AC10048, N-(1-(6-ethyl-4-oxo-1,4-dihydropyrimidin-2-yl)-3-methyl-1H-pyrazol-5-yl)-2-fluorobenzamide]",99 ± 2,0.58 ± 0.2,19 ± 11,–,–,–,–,–,–,–,–
